Laboratory results reported in US8623859B2, “Bradykinin B1 antagonists” (Evotec AG, priority 2008, dated 2014).
Structures can show the parent of a compound that is named as a salt.

molecular target: T1, human B1 (Homo sapiens, UniProt P46663); assay: Calcium flux assay for Bradykinin B1 antagonist, CHO-K1 cell line expressing human B1; assay type: cell-based; details: CHO-K1 cells expressing human B1, agonist Lys-(Des-Arg)-Bradykinin, read-out: Potency (IC50 value against human B1)
T1 construct: host or cells: CHO-K1
T1 sequence (P46663 1-353): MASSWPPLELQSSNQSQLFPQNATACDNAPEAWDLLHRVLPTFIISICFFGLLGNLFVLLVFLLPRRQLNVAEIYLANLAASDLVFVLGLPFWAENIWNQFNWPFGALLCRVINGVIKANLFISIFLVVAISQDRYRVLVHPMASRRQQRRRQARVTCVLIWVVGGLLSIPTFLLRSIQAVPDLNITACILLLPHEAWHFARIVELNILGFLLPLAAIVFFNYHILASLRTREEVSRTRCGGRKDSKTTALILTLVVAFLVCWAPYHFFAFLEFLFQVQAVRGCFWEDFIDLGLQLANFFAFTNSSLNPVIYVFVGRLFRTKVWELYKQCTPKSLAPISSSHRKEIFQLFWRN
Summary of the method: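 Inhibition of B1 agonist-evoked intracellular Ca2+ rise was followed by continuous fluorescence at 538 nm, with integrated, background-normalized signals plotted versus log compound concentration. Test compounds (eight 10-fold dilutions, triplicate, 1% DMSO final) were added 30 min at 25° C beforehand to Fluo-4AM-loaded human B1 CHO-K1 cells in pH 7.4 assay buffer.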

Row | IC50 | Compound
1 | 0.01 to 0.1 µM | COc1cc(C)c(S(=O)(=O)N(C)Cc2cc(C(=O)NCCc3ccc(C4=N[C@@H]5CCCC[C@H]5N4)cc3)co2)c(C)c1 [Ex 36, N-(2-{4-[(3aR,7aR)-3a,4,5,6,7,7a-hexahydro-1H-benzimidazol-2-yl]phenyl}ethyl)-5-({[(4-methoxy-2,6-dimethylphenyl)sulfonyl](methyl)amino}methyl)furan-3-carboxamide]
2 | 0.1 to 1 µM | COc1cc(C)c(S(=O)(=O)N(Cc2nc(C(=O)N3CC4CN(Cc5ccc(OC)nc5)CC4C3)co2)C2CC2)c(C)c1 (stereo not shown) [Ex 209, N-Cyclopropyl-4-methoxy-N-{[4-({5-[(6-methoxypyridin-3-yl)methyl]hexahydropyrrolo[3,4-c]pyrrol-2(1H)-yl}carbonyl)-1,3-oxazol-2-yl]methyl}-2,6-dimethylbenzenesulfonamide trifluoroacetate]
3 | 0.1 to 1 µM | COc1cc(C)c(S(=O)(=O)N(C)Cc2nnc(C(=O)N3CCN(CC4CCN(C(=O)OC(C)(C)C)CC4)CC3)o2)c(C)c1 [Ex 263, tert-Butyl 4-[(4-{[5-({[(4-methoxy-2,6-dimethylphenyl)sulfonyl](methyl)amino}methyl)-1,3,4-oxadiazol-2-yl]carbonyl}piperazin-1-yl)methyl]piperidine-1-carboxylate]
4 | < 0.01 µM | COc1cc(C)c(S(=O)(=O)N(Cc2nc(C(=O)N(C)Cc3nnc(CN4CCCC4)s3)co2)C2CC2)c(C)c1 [Ex 199, 2-({Cyclopropyl[(4-methoxy-2,6-dimethylphenyl)sulfonyl]amino}methyl)-N-methyl-N-{[5-(pyrrolidin-1-ylmethyl)-1,3,4-thiadiazol-2-yl]methyl}-1,3-oxazole-4-carboxamide trifluoroacetate]
5 | < 0.01 µM | COc1cc(C)c(S(=O)(=O)N(C)Cc2nc(C(=O)N(C)Cc3ccc(CN4CCC(O)CC4)cc3)co2)c(C)c1 [Ex 166, N-{4-[(4-Hydroxypiperidin-1-yl)methyl]benzyl}-2-({[(4-methoxy-2,6-dimethylphenyl)sulfonyl](methyl)amino}methyl)-N-methyl-1,3-oxazole-4-carboxamide]
6 | 0.1 to 1 µM | COc1cc(C)c(S(=O)(=O)N(C)Cc2cc(C(=O)NCc3ccc(CNCc4ccncc4)cc3)co2)c(C)c1 [Ex 96, 5-({[(4-Methoxy-2,6-dimethylphenyl)sulfonyl](methyl)amino}methyl)-N-(4-{[(pyridin-4-ylmethyl)amino]methyl}benzyl)furan-3-carboxamide trifluoroacetate]
7 | < 0.01 µM | COc1cc(C)c(S(=O)(=O)N(Cc2nc(C(=O)N3CCC(CCN4CCCC4)CC3)co2)C2CC2)c(C)c1 [Ex 193, N-Cyclopropyl-4-methoxy-2,6-dimethyl-N-[(4-{[4-(2-pyrrolidin-1-ylethyl)piperidin-1-yl]carbonyl}-1,3-oxazol-2-yl)methyl]benzenesulfonamide trifluoroacetate]
8 | 0.1 to 1 µM | COc1cc(C)c(S(=O)(=O)N(Cc2nc(C(=O)N3CC4CCNCC4C3)co2)C2CC2)c(C)c1 (stereo not shown) [Ex 205, N-Cyclopropyl-4-methoxy-2,6-dimethyl-N-{[4-(octahydro-2H-pyrrolo[3,4-c]pyridin-2-ylcarbonyl)-1,3-oxazol-2-yl]methyl}benzenesulfonamide]
9 | 0.01 to 0.1 µM | COc1cc(C)c(S(=O)(=O)N(C)Cc2cc(C(=O)N(C)Cc3ccc(C4=NCCCN4)cc3)co2)c(C)c1 [Ex 10, 5-({[(4-methoxy-2,6-dimethylphenyl)sulfonyl](methyl)amino}methyl)-N-methyl-N-[4-(1,4,5,6-tetrahydropyrimidin-2-yl)benzyl]furan-3-carboxamide]
10 | 0.1 to 1 µM | COc1cc(C)c(S(=O)(=O)N(Cc2cc(C(=O)NCc3ccc(C4=NCCN4)cc3)co2)C2CC2)c(C)c1 [Ex 82, 5-({cyclopropyl[(4-methoxy-2,6-dimethylphenyl)sulfonyl]amino}methyl)-N-[4-(4,5-dihydro-1H-imidazol-2-yl)benzyl]furan-3-carboxamide trifluoroacetate]

Second part, the compound before the results:

Row | Compound | IC50
11 | Cc1cc(O)cc(C)c1S(=O)(=O)N(C)Cc1cc(C(=O)N(C)CCc2ccc(C3=NCCN3)cc2)co1 [Ex 87, N-{2-[4-(4,5-Dihydro-1H-imidazol-2-yl)phenyl]ethyl}-5-({[(4-hydroxy-2,6-dimethylphenyl)sulfonyl](methyl)amino}methyl)-N-methylfuran-3-carboxamide, trifluoroacetate] | 0.01 to 0.1 µM
12 | COc1cc(C)c(S(=O)(=O)N(C)Cc2cc(C(=O)NCc3ccc(Nc4cccc[n+]4C)cc3)co2)c(C)c1 [Ex 12, 2-({4-[({[5-({[(4-methoxy-2,6-dimethylphenyl)sulfonyl](methyl)amino}methyl)furan-3-yl]carbonyl}amino)methyl]phenyl}amino)-1-methylpyridinium iodide] | 0.1 to 1 µM
13 | COc1cc(C)c(S(=O)(=O)N(Cc2nc(C(=O)N3CCC(O)(/C=C/c4ccncc4)CC3)co2)C2CC2)c(C)c1 [Ex 241, N-Cyclopropyl-N-{[4-({4-hydroxy-4-[(E)-2-pyridin-4-ylethenyl]piperidin-1-yl}carbonyl)-1,3-oxazol-2-yl]methyl}-4-methoxy-2,6-dimethylbenzenesulfonamide trifluoroacetate] | 0.01 to 0.1 µM
14 | COc1cc(C)c(S(=O)(=O)N(C)Cc2nc(C(=O)N3CCN(CC4CCN(C)CC4)CC3)no2)c(C)c1 [Ex 321, 4-Methoxy-N,2,6-trimethyl-N-{[3-({4-[(1-methylpiperidin-4-yl)methyl]piperazin-1-yl}carbonyl)-1,2,4-oxadiazol-5-yl]methyl}benzenesulfonamide] | 0.1 to 1 µM
15 | COc1cc(C)c(S(=O)(=O)N(C)Cc2cc(C(=O)N(C)Cc3nc(CN4CCCC4)cs3)co2)c(C)c1 [Ex 138, 5-({[(4-Methoxy-2,6-dimethylphenyl)sulfonyl](methyl)amino}methyl)-N-methyl-N-{[4-(pyrrolidin-1-ylmethyl)-1,3-thiazol-2-yl]methyl}furan-3-carboxamide] | < 0.01 µM
16 | CN(Cc1cc(C(=O)NCc2ccc(CN3CCCC3)cc2)co1)S(=O)(=O)c1c(Cl)cc(Br)cc1Cl [Ex 27, 5-({[(4-bromo-2,6-dichlorophenyl)sulfonyl](methyl)amino}methyl)-N-[4-(pyrrolidin-1-ylmethyl)benzyl]furan-3-carboxamide] | 0.1 to 1 µM
17 | COc1cc(C)c(S(=O)(=O)N(C)Cc2cc(C(=O)NCCc3ccc(CN4CC[C@H](N(C)C)C4)cc3)co2)c(C)c1 [Ex 92, N-[2-(4-{[(3S)-3-(Dimethylamino)pyrrolidin-1-yl]methyl}phenyl)ethyl]-5-({[(4-methoxy-2,6-dimethylphenyl)sulfonyl](methyl)amino}methyl)furan-3-carboxamide, trifluoroacetate] | 0.1 to 1 µM
18 | COc1cc(C)c(S(=O)(=O)N(Cc2nc(C(=O)N3CCN(Cc4ccc(F)nc4)CC3)co2)C2CC2)c(C)c1 [Ex 234, N-Cyclopropyl-N-{[4-({4-[(6-fluoropyridin-3-yl)methyl]piperazin-1-yl}carbonyl)-1,3-oxazol-2-yl]methyl}-4-methoxy-2,6-dimethylbenzenesulfonamide trifluoroacetate] | 0.1 to 1 µM
19 | COc1cc(C)c(S(=O)(=O)N(C)Cc2cc(C(=O)N(C)Cc3ccc(C4=NCCN4)cc3)co2)c(C)c1 [Ex 29, N-[4-(4,5-dihydro-1H-imidazol-2-yl)benzyl]-5-({[(4-methoxy-2,6-dimethylphenyl)sulfonyl](methyl)amino}methyl)-N-methylfuran-3-carboxamide] | < 0.01 µM
20 | COc1cc(C)c(S(=O)(=O)N(Cc2nc(C(=O)NCc3cccc(CN4CCCC4)c3)co2)C2CC2)c(C)c1 [Ex 78, 2-({Cyclopropyl[(4-methoxy-2,6-dimethylphenyl)sulfonyl]amino}methyl)-N-[3-(pyrrolidin-1-ylmethyl)benzyl]-1,3-oxazole-4-carboxamide] | < 0.01 µM
21 | COc1cc(C)c(S(=O)(=O)N(C)Cc2cc(C(=O)N(C)Cc3cccc(CN4CCCC4)c3)co2)c(C)c1 [Ex 8, 5-({[(4-methoxy-2,6-dimethylphenyl)sulfonyl](methyl)amino}methyl)-N-methyl-N-[3-(pyrrolidin-1-ylmethyl)benzyl]furan-3-carboxamide] | 0.01 to 0.1 µM
22 | COc1cc(C)c(S(=O)(=O)N(C)Cc2nc(C(=O)N(C)Cc3ccc(CN4CC(O)C4)cc3)co2)c(C)c1 [Ex 172, N-{4-[(3-Hydroxyazetidin-1-yl)methyl]benzyl}-2-({[(4-methoxy-2,6-dimethylphenyl)sulfonyl](methyl)amino}methyl)-N-methyl-1,3-oxazole-4-carboxamide] | 0.01 to 0.1 µM
23 | COc1cc(C)c(S(=O)(=O)N(C)Cc2nnc(C(=O)N3CCN(CCCN(C)C)CC3)o2)c(C)c1 [Ex 279, N-{[5-({4-[3-(Dimethylamino)propyl]piperazin-1-yl}carbonyl)-1,3,4-oxadiazol-2-yl]methyl}-4-methoxy-N,2,6-trimethylbenzenesulfonamide] | 0.01 to 0.1 µM
24 | COc1cc(C)c(S(=O)(=O)N(Cc2nc(C(=O)N3CCN(Cc4cnc5ccccc5c4)CC3)co2)C2CC2)c(C)c1 [Ex 254, N-Cyclopropyl-4-methoxy-2,6-dimethyl-N-[(4-{[4-(quinolin-3-ylmethyl)piperazin-1-yl]carbonyl}-1,3-oxazol-2-yl)methyl]benzenesulfonamide] | < 0.01 µM
25 | COc1cc(C)c(S(=O)(=O)N(Cc2cc(C(=O)NCc3cccc(CN4CCCC4)c3)co2)C2CC2)c(C)c1 [Ex 54, 5-({Cyclopropyl[(4-methoxy-2,6-dimethylphenyl)sulfonyl]amino}methyl)-N-[3-(pyrrolidin-1-ylmethyl)benzyl]furan-3-carboxamide] | 0.01 to 0.1 µM
